Data published in patent US7612064B2, “Sulfopyrroles” (Takeda Pharmaceutical Company Limited, priority 2003, dated 2009).
pIC50: −log10 of the molar value.

Assays:
MRC5 = assay: MTS proliferation assay; type: cell-based; settings: MRC5, 72 h
How it was run: (§1)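 Proliferation is assessed by MTS conversion, measured as 492 nm absorption. Cells are treated for three days (72 h) with four compound concentrations between 0.3 and 10 μM.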

Jily = assay: MTS proliferation assay; type: cell-based; settings: 72 h
How it was run: as §1

[1] = Hoechst 33342 nuclear staining; type: cell-based; settings: for Hoechst 33342 nuclear staining score, H460: H460 cells; for Hoechst 33342 nuclear staining score, HeLa: HeLa cells; for Hoechst 33342 nuclear staining score, Jily: Jily cells; for Hoechst 33342 nuclear staining score, Jurkat: Jurkat cells; for Hoechst 33342 nuclear staining score, MRC5: MRC5 cells; on Hoechst 33342 nuclear staining score, PBLs: key: 0: no activity; 1: weak activity comprising less than 50% of the cells; 2: strong activity comprising more than 50% of the cells;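 on all read-outs here: apoptotic nuclei scored 0 none 1 weak under 50% of cells 2 strong over 50% of cells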
How it was run: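 Cells were plated in 96 well tissue culture plates in 80 μl complete medium, with 3-5*10^3 cells per well for adherent lines and 8-10*10^3 for suspension lines. Adherent cells spread for 24 h before treatment, while suspension cells were treated right after seeding. Compounds were added in 20 μl complete medium containing max 5% DMSO.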

Jurkat = assay: MTS proliferation assay; type: cell-based, human; settings: 72 h
How it was run: as §1

HeLa = assay: MTS proliferation assay; type: cell-based, human; settings: 72 h
How it was run: as §1

| SMILES | pIC50 (MRC5) | pIC50 (Jily) | Hoechst 33342 nuclear staining score, H460 ([1]; conc 0.1) | Hoechst 33342 nuclear staining score, H460 ([1]; conc 0.3) | Hoechst 33342 nuclear staining score, H460 ([1]; conc 1) | Hoechst 33342 nuclear staining score, H460 ([1]; conc 3) | Hoechst 33342 nuclear staining score, HeLa ([1]; conc 0.1) | Hoechst 33342 nuclear staining score, HeLa ([1]; conc 0.3) | Hoechst 33342 nuclear staining score, HeLa ([1]; conc 1) | Hoechst 33342 nuclear staining score, HeLa ([1]; conc 3) | Hoechst 33342 nuclear staining score, Jily ([1]; conc 0.1) | Hoechst 33342 nuclear staining score, Jily ([1]; conc 0.3) | Hoechst 33342 nuclear staining score, Jily ([1]; conc 1) | Hoechst 33342 nuclear staining score, Jily ([1]; conc 3) | Hoechst 33342 nuclear staining score, Jurkat ([1]; conc 0.1) | Hoechst 33342 nuclear staining score, Jurkat ([1]; conc 0.3) | Hoechst 33342 nuclear staining score, Jurkat ([1]; conc 1) | Hoechst 33342 nuclear staining score, Jurkat ([1]; conc 3) | Hoechst 33342 nuclear staining score, MRC5 ([1]; conc 0.1) | Hoechst 33342 nuclear staining score, MRC5 ([1]; conc 0.3) | other results |
| --- | --- | --- | --- | --- | --- | --- | --- | --- | --- | --- | --- | --- | --- | --- | --- | --- | --- | --- | --- | --- | --- |
| COc1cc(-c2cc(-c3cccnc3)cn2S(=O)(=O)c2ccc(C(F)(F)F)cc2)cc(OC)c1OC [Example 82] | < 6.00 | < 6.00 | 0 | 0 | 2 (strong activity comprising more than 50% of the cells) | 2 (strong activity comprising more than 50% of the cells) | 0 | 0 | 2 (strong activity comprising more than 50% of the cells) | 2 (strong activity comprising more than 50% of the cells) | 0 | 0 | 1 (weak activity comprising less than 50% of the cells) | 2 (strong activity comprising more than 50% of the cells) | 0 | 0 | 2 (strong activity comprising more than 50% of the cells) | 2 (strong activity comprising more than 50% of the cells) | 0 | 0 | Hoechst 33342 nuclear staining score, MRC5 ([1]; conc 1): 1 (weak activity comprising less than 50% of the cells); Hoechst 33342 nuclear staining score, MRC5 ([1]; conc 3): 1 (weak activity comprising less than 50% of the cells); Hoechst 33342 nuclear staining score, PBLs ([1]; conc 0.1): 0; Hoechst 33342 nuclear staining score, PBLs ([1]; conc 0.3): 0; Hoechst 33342 nuclear staining score, PBLs ([1]; conc 1): 0; Hoechst 33342 nuclear staining score, PBLs ([1]; conc 3): 0; pIC50 (Jurkat): > 6.00; pIC50 (HeLa): < 6.00 |
| COc1cc(-c2cc(-c3cccnc3)cn2S(=O)(=O)c2ccc(C(C)(C)C)cc2)cc(OC)c1OC [Example 83] | < 6.00 | < 6.00 | 0 | 0 | 0 | 0 | 0 | 0 | 0 | 0 | 0 | 0 | 0 | 0 | 0 | 0 | 0 | 0 | 0 | 0 | Hoechst 33342 nuclear staining score, MRC5 ([1]; conc 1): 0; Hoechst 33342 nuclear staining score, MRC5 ([1]; conc 3): 0; Hoechst 33342 nuclear staining score, PBLs ([1]; conc 0.1): 0; Hoechst 33342 nuclear staining score, PBLs ([1]; conc 0.3): 0; Hoechst 33342 nuclear staining score, PBLs ([1]; conc 1): 0; Hoechst 33342 nuclear staining score, PBLs ([1]; conc 3): 0; pIC50 (Jurkat): < 6.00; pIC50 (HeLa): < 6.00 |
| COc1cc(-c2cc(-c3cccnc3)cn2S(=O)(=O)c2ccccc2Cl)cc(OC)c1OC [Example 84] | < 6.00 | < 6.00 | 0 | 0 | 0 | 0 | 0 | 0 | 0 | 0 | 0 | 0 | 0 | 0 | 0 | 0 | 0 | 0 | 0 | 0 | Hoechst 33342 nuclear staining score, MRC5 ([1]; conc 1): 0; Hoechst 33342 nuclear staining score, MRC5 ([1]; conc 3): 0; Hoechst 33342 nuclear staining score, PBLs ([1]; conc 0.1): 0; Hoechst 33342 nuclear staining score, PBLs ([1]; conc 0.3): 0; Hoechst 33342 nuclear staining score, PBLs ([1]; conc 1): 0; Hoechst 33342 nuclear staining score, PBLs ([1]; conc 3): 0; pIC50 (Jurkat): < 6.00; pIC50 (HeLa): < 6.00 |
| COc1cc(-c2cc(-c3cccnc3)cn2S(=O)(=O)c2c(Cl)cccc2Cl)cc(OC)c1OC [Example 85] | < 6.00 | < 6.00 | 0 | 0 | 0 | 0 | 0 | 0 | 0 | 0 | 0 | 0 | 0 | 0 | 0 | 0 | 0 | 0 | 0 | 0 | Hoechst 33342 nuclear staining score, MRC5 ([1]; conc 1): 0; Hoechst 33342 nuclear staining score, MRC5 ([1]; conc 3): 0; Hoechst 33342 nuclear staining score, PBLs ([1]; conc 0.1): 0; Hoechst 33342 nuclear staining score, PBLs ([1]; conc 0.3): 0; Hoechst 33342 nuclear staining score, PBLs ([1]; conc 1): 0; Hoechst 33342 nuclear staining score, PBLs ([1]; conc 3): 0; pIC50 (Jurkat): < 6.00; pIC50 (HeLa): < 6.00 |
| COc1cc(-c2cc(-c3cccnc3)cn2S(=O)(=O)c2ccc3c(c2)CCO3)cc(OC)c1OC [Example 86] | < 6.00 | > 6.00 | 0 | 0 | 0 | 2 (strong activity comprising more than 50% of the cells) | 0 | 0 | 0 | 1 (weak activity comprising less than 50% of the cells) | 0 | 0 | 1 (weak activity comprising less than 50% of the cells) | 2 (strong activity comprising more than 50% of the cells) | 0 | 0 | 2 (strong activity comprising more than 50% of the cells) | 2 (strong activity comprising more than 50% of the cells) | 0 | 0 | Hoechst 33342 nuclear staining score, MRC5 ([1]; conc 1): 0; Hoechst 33342 nuclear staining score, MRC5 ([1]; conc 3): 1 (weak activity comprising less than 50% of the cells); Hoechst 33342 nuclear staining score, PBLs ([1]; conc 0.1): 0; Hoechst 33342 nuclear staining score, PBLs ([1]; conc 0.3): 0; Hoechst 33342 nuclear staining score, PBLs ([1]; conc 1): 0; Hoechst 33342 nuclear staining score, PBLs ([1]; conc 3): 0; pIC50 (Jurkat): > 6.00; pIC50 (HeLa): < 6.00 |
| COc1cc(-c2cc(-c3cccnc3)cn2S(=O)(=O)c2cn(C)cn2)cc(OC)c1OC [Example 87] | < 6.00 | < 6.00 | 0 | 0 | 0 | 0 | 0 | 0 | 0 | 0 | 0 | 0 | 0 | 0 | 0 | 0 | 0 | 0 | 0 | 0 | Hoechst 33342 nuclear staining score, MRC5 ([1]; conc 1): 0; Hoechst 33342 nuclear staining score, MRC5 ([1]; conc 3): 0; Hoechst 33342 nuclear staining score, PBLs ([1]; conc 0.1): 0; Hoechst 33342 nuclear staining score, PBLs ([1]; conc 0.3): 0; Hoechst 33342 nuclear staining score, PBLs ([1]; conc 1): 0; Hoechst 33342 nuclear staining score, PBLs ([1]; conc 3): 0; pIC50 (Jurkat): < 6.00; pIC50 (HeLa): < 6.00 |
| COc1cc(-c2cc(-c3cccnc3)cn2S(=O)(=O)Cc2ccccc2)cc(OC)c1OC [Example 88] | < 6.00 | < 6.00 | 0 | 0 | 0 | 0 | 0 | 0 | 0 | 0 | 0 | 0 | 0 | 0 | 0 | 0 | 0 | 0 | 0 | 0 | Hoechst 33342 nuclear staining score, MRC5 ([1]; conc 1): 0; Hoechst 33342 nuclear staining score, MRC5 ([1]; conc 3): 0; Hoechst 33342 nuclear staining score, PBLs ([1]; conc 0.1): 0; Hoechst 33342 nuclear staining score, PBLs ([1]; conc 0.3): 0; Hoechst 33342 nuclear staining score, PBLs ([1]; conc 1): 0; Hoechst 33342 nuclear staining score, PBLs ([1]; conc 3): 0; pIC50 (Jurkat): < 6.00; pIC50 (HeLa): < 6.00 |
